Data on two compounds can be found in patent US9040091B2 (priority 2012, dated 2015).

SMILES strings stand for the structures.

Data set [1] can be described thus: Solubility of DTPA in neutral pH buffer, with and without zinc acetate. Type of data set: physicochemical. As to the method: As used herein, the terms “poorly absorbed drug,” “drug having low solubility,” and the like refer to a drug (in its neutral (i.e., uncharged) state) having a water solubility in neutral pH buffer of less than about 20 mg/ml. […] Thus, as used herein, DTPA (including DTPA and its salts, hydrates, solvates, complexes, etc.) is a poorly absorbed drug. […] In some embodiments, the present disclosure provides a pharmaceutical composition comprising a composition with improved aqueous solubility comprising a DTPA and zinc acetate composition of the present disclosure.

The nature of data set [2]: Americium-241 decorporation in rats (tissue levels and excretion). Type of data set: in vivo. The conditions noted are these: NanoDTPA capsules PO 60 mg/kg DTPA; for liver total Am-241 activity: rat liver, Zn-DTPA IV 15 mg/kg DTPA, per 200 ul homogenized tissue. As to the method: The decorporation and excretion properties in rodents of oral NanoDTPA capsules at 60 mg/kg DTPA according to the present disclosure was compared to IV Zn-DTPA solution at 15 mg/kg DTPA, which is the currently licensed product available to the public. The studies were designed to provide data that systemic Am-241 at a single low dose followed by oral NanoDTPA capsules can provide a sufficient radiation dose reduction as an efficacy endpoint. All DTPA dosing was initiated 24 hours post-exposure to isotope (Am-241) in this set of studies to simulate a realistic emergency response time following exposure. Two sets of measurements were made: (1) internal tissue levels at 2, 4, and 7 days vs. (2) daily excreted concentrations in urine and feces.
There was a general trend of tissue reduction in all groups over the 3, 5, and 8 day observation period. All data are expressed as total Am-241 activity in nCi per 200 ul blood, homogenized tissue, or output (urine and feces).

Data set [3] can be described thus: Single dose pharmacokinetic testing, DTPA in blood of male beagle dogs. Type of data set: in vivo. The following applies: 72 hours post-dose. As to the method:
The objective of this study was to evaluate the concentration of DTPA in blood following a single administration with either Zn-DTPA injectable solution or NanoDTPA capsules using male beagle dogs. Single dose pharmacokinetic (PK) testing groups of Zn-DTPA solution vs. NanoDTPA capsules included nine study groups used for the PK testing. Zn-DTPA solution was delivered intravenously (IV) and by mouth (per os, PO) and NanoDTPA capsules were administered PO. […] Three formulations of NanoDTPA capsules were tested to examine different formulations of NanoDTPA powder and different capsule sizes. The dose for each NanoDTPA capsule formulation was either two or six capsules and the calculated DTPA doses confirmed based on the amount of DTPA in the capsules and body weight.

Data set [4] in a line: Americium-241 decorporation in dogs (urine, feces, tissue Am-241). Type of data set: in vivo, beagle dogs. The conditions noted are these: daily dosing days 1-14, Zn-DTPA IV 15 mg/kg, NanoDTPA 1, 2 or 6 capsules/day or 2 capsules twice/day. An excerpt: The objective of this study was to evaluate the dose-related efficacy of daily doses of NanoDTPA capsules in male and female beagle dogs intravenously (IV) administered a soluble citrate complex of americium-241 (Am-241). Twenty-four (24) male and female beagle dogs underwent a 14-day quarantine period for acclimation. Once released from quarantine, animals were weighed and randomized into study animals or spares. The average body weight of study animals was 8.6±0.9 kg (males 9.0±1.0 kg; females 8.2±0.7 kg). After randomization, animals were acclimated to metabolism cages for 24 hours prior to radionuclide administration. Animals received a single IV administration of 241Am(III)-citrate on Day 0. One day after radionuclide administration, one of four different doses of NanoDTPA capsules [1, 2, or 6-capsules/day or 2 capsules twice/day], IV Zn-DTPA [15 mg/kg] as a positive control, or IV saline as a placebo were administered. NanoDTPA capsules, IV Zn-DTPA, or IV saline was administered on study days 1-14. Urine and feces were collected daily. Animals were euthanized on day 21 and tissues collected. Urine, fecal, and tissue samples were analyzed for Am-241 content.

On to `O=C(O)CN(CCN(CC(=O)O)CC(=O)O)CCN(CC(=O)O)CC(=O)O` [DTPA, diethylenetriaminepentaacetate], for which, in data set [1] (about 10 mg/ml zinc acetate), the “increase of the solubility of DTPA” value is given as “about 35%” and the “solubility of DTPA with zinc acetate” value is given as “about 23.3 mg/ml”. Also, in data set [1] (about 20 mg/ml zinc acetate), the “increase of the solubility of DTPA” value is “about 83%” and the “solubility of DTPA with zinc acetate” value is “about 31.5 mg/ml”. Also, the “solubility in neutral pH buffer” value in data set [1] (neutral pH buffer, no additive) is listed as < 17.2 mg/ml.

As for `O=C([O-])CN(CCN(CC(=O)[O-])CC(=O)[O-])CCN(CC(=O)[O-])CC(=O)[O-].[Na+].[Na+].[Na+].[Zn+2]` [Zn-DTPA], the “liver total Am-241 activity” value is recorded as 116.37+/−26.90 nCi in data set [2] (after 2 doses, dosing from 24 h post-exposure); 81.70+/−11.53 nCi in data set [2] (after 4 doses); 55.42+/−19.68 nCi in data set [2] (after 7 doses). Moreover, in data set [2] (rats, Zn-DTPA IV 15 mg/kg), the “tissue Am-241 concentrations compared to control animals receiving no DTPA treatment” value is listed as “significantly lower”. Besides, the percent bioavailability in data set [3] (PO 6 mg DTPA/kg) was found to be 12.26%; in data set [3] (PO 60 mg DTPA/kg) it was 12.67%. Also, the “Am-241 activity excreted in the urine compared to the saline placebo” value in data set [4] is recorded as “approximately 9.4 times”.
